# From PMC5881017, “Mechanisms of BK Channel Activation by Docosahexaenoic Acid in Rat Coronary Arterial Smooth Muscle Cells” (Frontiers in Pharmacology, 2018)
# Target: T1, large-conductance calcium-activated potassium (BK) channel (Rattus norvegicus, UniProt Q62976)
# T1 construct: gene Kcnma1; native BK channels in freshly isolated rat coronary arterial smooth muscle cells (inside-out patches)
# Assay: inside-out single-channel patch clamp (open probability at +[…] mV)
# Format: cell-based
# T1 sequence (Q62976 whole entry): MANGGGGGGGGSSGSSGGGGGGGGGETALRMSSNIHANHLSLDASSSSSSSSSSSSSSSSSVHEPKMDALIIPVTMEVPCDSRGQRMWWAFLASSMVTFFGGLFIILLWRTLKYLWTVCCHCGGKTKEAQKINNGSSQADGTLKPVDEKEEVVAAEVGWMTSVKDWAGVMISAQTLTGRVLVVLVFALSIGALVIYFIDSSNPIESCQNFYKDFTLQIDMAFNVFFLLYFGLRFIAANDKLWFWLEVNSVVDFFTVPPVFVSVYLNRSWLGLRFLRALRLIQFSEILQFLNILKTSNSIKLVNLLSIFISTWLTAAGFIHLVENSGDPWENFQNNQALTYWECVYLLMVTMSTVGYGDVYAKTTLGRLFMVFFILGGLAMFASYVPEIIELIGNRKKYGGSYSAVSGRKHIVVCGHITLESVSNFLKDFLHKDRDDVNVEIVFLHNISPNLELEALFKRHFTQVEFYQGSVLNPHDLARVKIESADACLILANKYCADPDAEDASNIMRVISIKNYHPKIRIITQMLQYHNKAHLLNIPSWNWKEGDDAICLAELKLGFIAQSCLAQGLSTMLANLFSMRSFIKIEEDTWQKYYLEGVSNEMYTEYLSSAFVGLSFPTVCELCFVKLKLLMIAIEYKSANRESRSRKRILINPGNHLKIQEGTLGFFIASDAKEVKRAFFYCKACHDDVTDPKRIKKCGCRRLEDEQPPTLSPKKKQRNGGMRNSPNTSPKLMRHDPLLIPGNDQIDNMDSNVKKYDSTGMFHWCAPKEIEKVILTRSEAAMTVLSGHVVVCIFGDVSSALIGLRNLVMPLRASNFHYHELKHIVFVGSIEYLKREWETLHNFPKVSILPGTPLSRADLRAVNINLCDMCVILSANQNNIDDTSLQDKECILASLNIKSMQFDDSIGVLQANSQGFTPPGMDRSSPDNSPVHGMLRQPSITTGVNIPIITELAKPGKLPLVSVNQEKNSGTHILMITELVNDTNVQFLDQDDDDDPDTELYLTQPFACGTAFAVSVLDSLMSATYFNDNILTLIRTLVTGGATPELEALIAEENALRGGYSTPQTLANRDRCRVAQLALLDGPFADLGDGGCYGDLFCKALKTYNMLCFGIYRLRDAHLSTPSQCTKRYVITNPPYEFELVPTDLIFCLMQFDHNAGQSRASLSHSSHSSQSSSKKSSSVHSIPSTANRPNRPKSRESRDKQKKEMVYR
compound,measurement,value
CC/C=C\C/C=C\C/C=C\C/C=C\C/C=C\C/C=C\CCC(=O)O [Docosahexaenoic acid],EC50,3.37 ± 0.1 µM
